{
  "source": "paper PMC2568864",
  "about": "“Chemical Dissection of the Link between Streptozotocin, O-GlcNAc, and Pancreatic Cell Death” (Chemistry & Biology, 2008)",
  "molecular_target": "T1, human O-GlcNAcase (hOGA) (Homo sapiens, UniProt O60502)",
  "T1 construct": "gene OGA; residues 53–916, GST fusion",
  "T1 sequence (O60502 53-916)": "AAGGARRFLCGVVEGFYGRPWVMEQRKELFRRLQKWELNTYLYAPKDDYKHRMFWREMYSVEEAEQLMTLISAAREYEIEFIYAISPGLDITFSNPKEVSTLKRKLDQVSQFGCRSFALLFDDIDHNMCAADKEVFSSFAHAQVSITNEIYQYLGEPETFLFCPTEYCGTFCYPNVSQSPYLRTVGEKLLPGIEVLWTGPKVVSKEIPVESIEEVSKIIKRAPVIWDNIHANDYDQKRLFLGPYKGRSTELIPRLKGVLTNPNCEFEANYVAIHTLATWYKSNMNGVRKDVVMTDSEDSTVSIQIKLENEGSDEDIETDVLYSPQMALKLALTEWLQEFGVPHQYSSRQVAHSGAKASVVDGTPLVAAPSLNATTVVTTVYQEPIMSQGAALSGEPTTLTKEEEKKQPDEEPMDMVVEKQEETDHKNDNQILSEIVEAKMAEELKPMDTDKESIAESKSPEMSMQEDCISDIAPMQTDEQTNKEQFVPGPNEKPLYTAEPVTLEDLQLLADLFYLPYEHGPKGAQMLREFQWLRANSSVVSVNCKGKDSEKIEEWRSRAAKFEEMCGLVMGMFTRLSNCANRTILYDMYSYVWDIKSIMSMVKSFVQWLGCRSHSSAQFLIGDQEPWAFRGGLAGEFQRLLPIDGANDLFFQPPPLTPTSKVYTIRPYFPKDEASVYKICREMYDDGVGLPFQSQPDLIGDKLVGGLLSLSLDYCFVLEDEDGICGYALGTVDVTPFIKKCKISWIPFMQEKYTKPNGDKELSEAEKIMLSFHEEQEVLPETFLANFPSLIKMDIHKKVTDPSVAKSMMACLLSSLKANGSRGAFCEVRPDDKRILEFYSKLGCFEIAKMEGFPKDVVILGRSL",
  "test": "steady-state kinetics with fluorogenic 4MU-GlcNAc, Lineweaver-Burk, competitive inhibition fit",
  "type": "biochemical",
  "data": [
    {"smiles": "CN(N=O)C(=O)N[C@H]1C(O)O[C@H](CO)[C@@H](O)[C@@H]1O", "note": "(stereo partly shown) [STZ, streptozotocin]", "values": [
      {"measurement": "Ki", "result": "64 ± 3", "unit": "µM"}
    ]}
  ]
}
